According to US12312292B2, “Long chain alkyl esteramine lipid compound, preparation method therefor and application thereof in nucleic acid delivery” (RinuaGene Biotechnology Co., Ltd., priority 2022, dated 2025):

Key:
luciferase mRNA = test: Detection of reporter gene (luciferase mRNA) expression in mice in vivo; parameters: species or system BALB/c female mice; details: LNP-delivered luciferase mRNA, quadriceps muscle injection, IVIS 24 h after injection; dose (5 or 14 μg mRNA) not given
Protocol: The prepared LNP-encapsulated mRNA solution was diluted with PBS buffer to obtain the solution for injection. BALB/c female mice at about 20 g were injected with injection solution at the quadriceps muscle site of mice with an insulin syringe, and each mouse was injected with 50 μL. Two doses were designed: one dose of “5 μg mRNA per 50 μL of injection solution” and the other dose of “14 μg mRNA per 50 μL of injection solution”. BALB/c female mice at about 20 g are injected with PBS buffer at the quadriceps muscle site of mice with an insulin syringe, and each mouse was injected with 50 μL.
After the mice were injected for 24 h, in vivo expression of Luciferase was detected with Perkinelmer's IVIS. The substrate was D-luciferin Sodium salt (GOLDBIO, LUCNA-1G), which was formulated into a concentration of 15 mg/mL with normal saline, filtered and sterilized with a 0.22 μm filter membrane, and stored at −20° C. in aliquots protected from light. Before imaging, each mouse at about 20 g was intraperitoneally injected with 200 μL of substrate solution for 10-20 minutes, and then was anesthetized with isoflurane gas and placed prone on the imaging plate to detect the fluorescence of the animal in vivo, and the results are shown in Table 2.

BALB/c female mice = test: Acute toxicity analysis of lipid molecules (cationic lipid LNP) in BALB/c female mice; details: blood 24 h after injection, Ave(SD)
[1] = In vivo expression distribution analysis of delivered luciferase mRNA (RT-PCR in tissues); parameters: species or system C57BL/6J mice; details: delivered luciferase mRNA, single intramuscular injection 50 μg, 2 h-336 h, RT-PCR
Protocol: In order to investigate the distribution features of lipid-delivering mRNA in vivo, we analyzed the distribution features of the reporter luciferase mRNA of the compounds of the present invention in C57BL/6J mice after administration by a single intramuscular injection. The experimental 10 C57BL/6J mice were enrolled, male and female, each administered 50 μg, with SM102 as the control.
Animals in the negative control group were collected at 2 h and 336 h after administration, and animals in the test group were collected at 2 h, 6 h, 24 h, 48 h, 72 h, 120 h, 168 h, and 336 h after administration whole blood, bone marrow, liver, spleen, heart, kidney, inguinal lymph nodes, mesenteric lymph nodes, spleen, brain, stomach, small intestine, non-injection site muscle, injection site muscle tissue, etc. The RNA content in the samples at each time point was detected by RT-PCR, and the lower limit of quantification of the method was […] to reflect the distribution features in C57BL/6J mice.

SD rat = test: Liver injury toxicity analysis of lipid molecules in SD rat (serum ALT and AST); type: in vivo; details: SD rats, 3 mg/kg mRNA encoding Luciferase via tail vein, serum 24 hours after injection; compared with SM102 (FIGS. 4A, 4B)
Excerpt: In order to further investigate the hepatic injury toxicity of exemplary compounds, we analyze the effect of the compounds of the present invention on serum alanine aminotransferase (ALT) and […] (AST) levels. The experimental 30 SD rats (15 females+15 males, purchased from Zhejiang Weitong Lihua Laboratory Animal Technology Co., Ltd.) were randomly divided into three groups, namely negative control group (PBS), SM102 group, and compound 2 group, each group of […]. According to body weight, each rat was injected with 3 mg/kg of mRNA encoding Luciferase through the tail vein, fasted overnight with supplying water, and whole blood was collected 24 hours after injection, and serum was isolated. The concentration of ALT and AST in the serum of each rat was detected with a fully automated biochemical analyzer, and the test results are shown in FIGS. 4A and 4B.

Which Average fluorescence intensity (luciferase mRNA) does the source give for `CCCCCCCCCCCOC(=O)CCCCCN(CCCCCCO)CCCCCCCC(=O)OC(CCCCCCCC)CCCCCCCC` [Example 2] here?
Its Average fluorescence intensity is 1.144E+06 P/s/cm^2/sr.

And the Alanine aminotransferase (BALB/c female mice; high dose group, 150 μg LNP/pc)?
The Alanine aminotransferase was 41.54 U/L.

What about the “Alkaline phosphatase (ALP)” value (BALB/c female mice; high dose group, 150 μg LNP/pc) of the same compound?
The value was 111.86 U/L.

And the Aspartate aminotransferase (BALB/c female mice; high dose group, 150 μg LNP/pc)?
The Aspartate aminotransferase was 124.48 U/L.

And the Creatinine (BALB/c female mice; high dose group, 150 μg LNP/pc)?
The Creatinine was 12.6 µmol/L.

And the “Total bilirubin (TBIL)” value (BALB/c female mice; high dose group, 150 μg LNP/pc)?
The value was 1.25.

What about the “γ-Glutamyltransferase (GGT)” value (BALB/c female mice; high dose group, 150 μg LNP/pc) of the same compound?
The value was 0.20 (0.18) U/L.

What about the Alanine aminotransferase (BALB/c female mice; low dose group, 50 μg/pc) of the same compound?
Its Alanine aminotransferase is 35.32 (2.51) U/L.

And the “Alkaline phosphatase (ALP)” value (BALB/c female mice; low dose group, 50 μg/pc)?
Its value is 113.3 U/L.

And the Aspartate aminotransferase (BALB/c female mice; low dose group, 50 μg/pc)?
Its Aspartate aminotransferase is 111.74 U/L.

And the Creatinine (BALB/c female mice; low dose group, 50 μg/pc)?
The Creatinine was 12.6 µmol/L.

What about the “Total bilirubin (TBIL)” value (BALB/c female mice; low dose group, 50 μg/pc) of the same compound?
The value was 1.22 (0.20).

What about the “γ-Glutamyltransferase (GGT)” value (BALB/c female mice; low dose group, 50 μg/pc) of the same compound?
Its value is 0.40 (0.37) U/L.

What about the “Exposure in tissues and organs, from high to low” value [1] of the same compound?
The value was “injection site muscle, inguinal lymph nodes, whole blood, spleen, non-injection site muscle, bone marrow, heart, liver, mesenteric lymph nodes, kidney, small intestine and brain”.

What about the “Elevation effect on serum ALT and AST” value (SD rat) of the same compound?
Its value is “significantly lower than these of compound SM102”.
